Counter-ions that a name gives are not always drawn. Like-named read-outs stand apart in the source and are kept apart here.

Holding throughout (assay): biochemical
For one test, the target named is T1, MMP-2 (Homo sapiens, UniProt P08253).
T1 construct: made in house; provided by Dr. Gregory Goldberg, Washington University
T1 sequence (P08253 110-660): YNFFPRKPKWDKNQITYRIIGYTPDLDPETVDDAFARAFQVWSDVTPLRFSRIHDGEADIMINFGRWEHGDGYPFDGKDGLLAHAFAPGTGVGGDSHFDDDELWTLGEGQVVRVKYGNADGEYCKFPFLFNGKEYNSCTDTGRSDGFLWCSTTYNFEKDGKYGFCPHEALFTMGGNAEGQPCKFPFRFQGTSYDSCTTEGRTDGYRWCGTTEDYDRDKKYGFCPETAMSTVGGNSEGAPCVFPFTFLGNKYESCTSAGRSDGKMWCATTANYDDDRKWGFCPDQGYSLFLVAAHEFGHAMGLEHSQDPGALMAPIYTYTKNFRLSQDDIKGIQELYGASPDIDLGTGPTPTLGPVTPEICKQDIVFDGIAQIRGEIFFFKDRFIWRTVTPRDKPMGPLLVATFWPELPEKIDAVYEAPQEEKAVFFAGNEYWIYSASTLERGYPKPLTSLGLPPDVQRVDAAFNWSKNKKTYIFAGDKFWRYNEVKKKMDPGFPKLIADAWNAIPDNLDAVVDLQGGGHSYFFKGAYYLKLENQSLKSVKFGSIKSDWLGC
The conditions noted are these: read-out: MMP-2 IC50. In outline:
(§1)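 Assay buffer 100 mM Tris-HCl, 100 mM NaCl, 10 mM CaCl2, pH 7.5. Activated MMP + inhibitor, 5 min RT; then methoxycoumarin peptide substrate, 4 μM final. Readout fluorescence; IC50 calculated.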

The next test has as its target T2, MMP-13 (Homo sapiens, UniProt P45452).
T2 construct: made in house; host or cells: baculovirus / insect cells
The note with it: read-out: MMP-13 IC50. The method in brief: as §1

In the next test the target is T3, MMP-1 (Homo sapiens, UniProt P03956).
T3 construct: made in house; host or cells: transfected HT-1080 cells (provided by Dr. Harold Welgus, Washington University)
T3 sequence (P03956 100-469): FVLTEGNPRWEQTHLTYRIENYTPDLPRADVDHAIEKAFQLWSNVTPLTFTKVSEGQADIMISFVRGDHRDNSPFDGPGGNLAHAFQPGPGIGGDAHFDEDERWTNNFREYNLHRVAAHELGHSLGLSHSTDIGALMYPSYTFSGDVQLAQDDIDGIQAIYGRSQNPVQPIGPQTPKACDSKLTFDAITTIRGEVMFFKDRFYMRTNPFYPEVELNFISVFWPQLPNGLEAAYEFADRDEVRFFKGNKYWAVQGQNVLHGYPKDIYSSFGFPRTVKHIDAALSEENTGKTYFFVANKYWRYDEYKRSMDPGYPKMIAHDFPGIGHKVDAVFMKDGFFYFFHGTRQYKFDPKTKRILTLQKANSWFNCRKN
The conditions noted are these: read-out: MMP-1 IC50. The method in brief:
as §1

Where [1] appears, read: recombinant human MMP-2, MCA peptide substrate 4 μM, pH 7.5, room temperature.
The mark [2] stands for this setting: recombinant human MMP-13, MCA peptide substrate 4 μM, pH 7.5, room temperature.
Setting [3] is: recombinant human MMP-1, MCA peptide substrate 4 μM, pH 7.5, room temperature.

For `COCCN1CCC(C(=O)NO)(S(=O)(=O)c2ccc(N3CCC(C(=O)N4CCc5ccccc54)CC3)cc2)CC1` [Example 246, 4-[[4-[4-[(2,3-Dihydro-1H-indol-1-yl)carbonyl]-1-piperidinyl]-phenyl]sulfonyl]-N-hydroxy-1-(2-methoxyethyl)-4-piperidinecarboxamide, Monohydrate], the IC50 at MMP-2 (setting [1]) is 2700 nM; on MMP-13 (setting [2]), 32.7 nM; on MMP-1 (setting [3]) it was > 10000 nM.
In the same order, the values of `O=C(CCCCN1CCOCC1)N1CCC(C(=O)NO)(S(=O)(=O)c2ccc(Oc3ccc(C(F)(F)F)cc3)cc2)CC1` [Example 335] are 0.15 nM, 0.9 nM and > 10000 nM.
With `O=C(C1CCN(c2ccc(S(=O)(=O)C3(C(=O)NO)CCOCC3)cc2)CC1)N1CCN(c2ccc(C(F)(F)F)cc2[N+](=O)[O-])CC1` [Example 32], the values for the IC50 on MMP-2, at MMP-13 and on MMP-1 were 800 nM, 10 nM and > 10000 nM, respectively.
Regarding `CCN(CC)Cc1ccc(COC2CCN(c3ccc(S(=O)(=O)C4(C(=O)NO)CCOCC4)cc3)CC2)cc1` [Example 523], the values for the IC50 at MMP-2 (setting [1]), at MMP-13 (setting [2]) and at MMP-1 (setting [3]) were 190 nM, 2.4 nM and > 10000 nM, respectively.
For `O=C(Cn1ccnc1)N1CCC(C(=O)NO)(S(=O)(=O)c2ccc(Oc3ccc(C(F)(F)F)cc3)cc2)CC1` [Example 317], the values for the IC50 on MMP-2 (setting [1]), at MMP-13 (setting [2]) and on MMP-1 (setting [3]) were 0.4 nM, 1.4 nM and > 10000 nM, respectively.
In the same order, the values of `O=C(NO)C1(S(=O)(=O)c2ccc(N3CCCCC3)cc2)CCOCC1` [Example 209] are 130 nM, 50 nM and > 10000 nM.
In the same order, the values of `CN(CCc1ccccc1)C1CCN(c2ccc(S(=O)(=O)C3(C(=O)NO)CCOCC3)cc2)CC1` [Example 584] are 3500 nM, 2700 nM and > 10000 nM.
Taken in the same sequence, the figures for `O=C(NO)C1(S(=O)(=O)c2ccc(Oc3ccc(OC(F)(F)F)cc3)cc2)CCN(Cc2cc(Cl)cc(Cl)c2)CC1` [Example 348] were 0.8 nM, 16.5 nM and > 10000 nM.
In the case of `CC1CN(c2ccc(S(=O)(=O)C3(C(=O)NO)CCOCC3)cc2)CCC1OCc1ccc(C(F)(F)F)cc1` (stereo not drawn) [Example 583], the values for the IC50 at MMP-2 (setting [1]), on MMP-13 (setting [2]) and on MMP-1 (setting [3]) were 4700 nM, 70 nM and > 10000 nM, respectively.
In the same order, the values of `COCCN1CCC(C(=O)NO)(S(=O)(=O)c2ccc(N3CCC(OCc4ccc(F)cc4)CC3)cc2)CC1` [Example 448] are 540 nM, 2.4 nM and > 10000 nM.
Taken in the same sequence, the figures for “Tetrahydro-N-hydroxy-4-[[4-(pentaflourooxy)phenyl]sulfonyl]-2H-thiopyran-4-carboxamide [Example 224]” were < 0.1 nM, < 0.1 nM and 4500 nM.
For the compound `C[C@H]1C[C@H](C)CN(C(=O)C2CCN(c3ccc(S(=O)(=O)C4(C(=O)NO)CCN(C(=O)CCl)CC4)cc3)CC2)C1` [Example 275], the values for the IC50 on MMP-2, at MMP-13 and at MMP-1 were > 10000 nM, 70 nM and > 10000 nM, respectively.
Turning to `O=C(Nc1ccc(C(F)(F)F)cc1)N1CCC(C(=O)NO)(S(=O)(=O)c2ccc(Oc3ccc(OC(F)(F)F)cc3)cc2)CC1` [Example 366], the IC50 at MMP-2 (setting [1]) is 2.5 nM; on MMP-13 (setting [2]), 13 nM; at MMP-1 (setting [3]) it was > 10000 nM.
In the same order, the values of `O=C(NO)C1(S(=O)(=O)c2ccc(N3CCC(OCc4ccncc4)CC3)cc2)CCOCC1` [Example 577] are 2200 nM, 107 nM and > 10000 nM.
Taken in the same sequence, the figures for `O=C(NO)C1(S(=O)(=O)c2ccc(Oc3ccc(OC(F)(F)F)cc3)cc2)CCN(CCn2ccnc2)CC1` [Example 261, N-Hydroxy-1-[2-(1H-imidazol-1-yl)ethyl]-4-[[4-[4-(trifluoromethoxy)phenoxy]phenyl]sulfonyl]-4-piperidinecarboxamide, Dihydrochloride] were < 0.1 nM, < 0.1 nM and 3700 nM.
Taken in the same sequence, the figures for `CCN(CC(=O)N1CCC(C(=O)NO)(S(=O)(=O)c2ccc(Oc3ccc(C(F)(F)F)cc3)cc2)CC1)Cc1ccncc1` [Example 329] were 0.4 nM, 0.9 nM and > 10000 nM.
For `O=C(NO)C1(S(=O)(=O)c2ccc(OC3CCC(OCc4cccc(OC(F)(F)F)c4)C3)cc2)CCOCC1` (stereo not drawn) [Example 714], the figures for the IC50 at MMP-2 (setting [1]), on MMP-13 (setting [2]) and at MMP-1 (setting [3]) were 420 nM, 28.8 nM and > 10000 nM, respectively.
Consider `O=C(Nc1cccc(OC(F)(F)F)c1)C1CCN(c2ccc(S(=O)(=O)C3(C(=O)NO)CCOCC3)cc2)CC1` [Example 68], for which the IC50 at MMP-2 (setting [1]) is 1800 nM; on MMP-13 (setting [2]), 13 nM; on MMP-1 (setting [3]), > 10000 nM.
Taken in the same sequence, the figures for `O=C(NO)C1(S(=O)(=O)c2ccc(N3CCC(OCc4ccc(Br)cc4)CC3)cc2)CCOCC1` [Example 579] were 100 nM, 2.7 nM and > 10000 nM.
Turning to `O=C(NO)C1(S(=O)(=O)c2ccc(N3CC[C@@H](COCc4ccc(F)cc4)C3)cc2)CCOCC1` [Example 526], the IC50 at MMP-2 (setting [1]), at MMP-13 (setting [2]) and at MMP-1 (setting [3]) was > 10000 nM each time.
For `O=C(NO)C1(S(=O)(=O)c2ccc(N3CCC(S(=O)(=O)c4ccccc4)CC3)cc2)CCN(C2CC2)CC1` [Example 409], the concentration for half-maximal inhibition (IC50) on MMP-2 (setting [1]) is 275 nM; at MMP-13 (setting [2]), 22.4 nM; at MMP-1 (setting [3]), > 10000 nM.
Regarding `O=C(NO)C1(S(=O)(=O)c2ccc(N3CCC(OCc4ccc(COCC(F)(F)C(F)F)cc4)CC3)cc2)CCOCC1` [Example 608], the values for the IC50 at MMP-2 (setting [1]), on MMP-13 (setting [2]) and at MMP-1 (setting [3]) were 250 nM, 3 nM and > 10000 nM, respectively.
Taken in the same sequence, the figures for `O=C(NO)C1(S(=O)(=O)c2ccc(N3CCC(Oc4cc(F)cc(F)c4)CC3)cc2)CCOCC1` [Example 545] were 120 nM, 7.7 nM and > 10000 nM.
Taken in the same sequence, the figures for `CCCCC(=O)N1CCN(c2ccc(S(=O)(=O)C3(C(=O)NO)CCOCC3)cc2)CC1` [Example 591] were 730 nM, 70 nM and > 10000 nM.
Turning to `CCCN(CC(=O)N1CCC(C(=O)NO)(S(=O)(=O)c2ccc(Oc3ccc(C(F)(F)F)cc3)cc2)CC1)CC1CC1` [Example 331], the IC50 at MMP-2 (setting [1]) is 0.2 nM; at MMP-13 (setting [2]), 0.7 nM; at MMP-1 (setting [3]), > 10000 nM.
Taken in the same sequence, the figures for `CN(C)S(=O)(=O)N(C)C1CCN(c2ccc(S(=O)(=O)C3(C(=O)NO)CCOCC3)cc2)CC1` [Example 832] were 2000 nM, 18.1 nM and > 10000 nM.
In the same order, the values of `O=C(NO)C1(S(=O)(=O)c2ccc(N3CCC(Sc4ccc(OC(F)(F)F)cc4)CC3)cc2)CCN(C2CC2)CC1` [Example 415] are 246 nM, 50.4 nM and > 10000 nM.
Regarding `COc1ccc(CCCOC2CCN(c3ccc(S(=O)(=O)C4(C(=O)NO)CCOCC4)cc3)CC2)cc1OC` [Example 811], the IC50 on MMP-2 (setting [1]) was 110 nM; at MMP-13 (setting [2]), 14.8 nM; at MMP-1 (setting [3]), > 10000 nM.
In the same order, the values of `O=C(NO)C1(S(=O)(=O)c2ccc(N3CCC(Oc4cc(F)c([N+](=O)[O-])c(F)c4)CC3)cc2)CCOCC1` [Example 549] are 2900 nM, 55.3 nM and > 10000 nM.

As usually defined, the IC50 is the concentration that inhibits the measured activity by half.
